Here are results for one compound from US10463658B2, “Method of inhibiting FLT3 kinase” (AROG Pharmaceuticals, LLC, priority 2013, dated 2019).

Assay [1] concerns the target T1, FLT3 D835H (Homo sapiens, UniProt P36888, D835H).
T1 construct: host or cells: E. coli BL21-derived host (T7 phage) or HEK-293
T1 sequence (P36888 610-943 D835H limits assumed): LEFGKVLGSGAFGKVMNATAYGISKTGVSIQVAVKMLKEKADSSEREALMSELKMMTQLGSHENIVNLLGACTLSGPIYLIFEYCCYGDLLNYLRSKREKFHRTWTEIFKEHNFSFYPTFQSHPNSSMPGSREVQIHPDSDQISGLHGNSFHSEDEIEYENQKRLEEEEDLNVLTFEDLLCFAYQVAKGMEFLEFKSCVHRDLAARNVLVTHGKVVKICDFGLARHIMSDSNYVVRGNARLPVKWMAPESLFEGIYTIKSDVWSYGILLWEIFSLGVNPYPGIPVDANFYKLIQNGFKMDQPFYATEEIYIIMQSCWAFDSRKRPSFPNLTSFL
In words: KINOMEscan KdElect competitive binding assay, FLT3 D835H. The following applies: tosylate salt. The text has this: (§1) Competitive binding assay.
(§2) The lysates were then centrifuged and filtered.

Assay [2] concerns the target T2, FLT3 D835Y (Homo sapiens, UniProt P36888, D835Y).
T2 construct: host or cells: E. coli BL21-derived host (T7 phage) or HEK-293
T2 sequence (P36888 610-943 D835Y limits assumed): T1 sequence (P36888 610-943 D835H limits assumed) with H226Y
Put plainly: KINOMEscan KdElect competitive binding assay, FLT3 D835Y. Particulars: tosylate salt.
Source text: as §1, §2

Assay [3] has as its target T3, FLT3 K663Q (Homo sapiens, UniProt P36888, K663Q).
T3 construct: host or cells: E. coli BL21-derived host (T7 phage) or HEK-293
T3 sequence (P36888 610-943 K663Q limits assumed): T1 sequence (P36888 610-943 D835H limits assumed) with K54Q, H226D
Put plainly: KINOMEscan KdElect competitive binding assay, FLT3 K663Q. The following applies: tosylate salt; read-out: Binding Constant (Kd), FLT3 K663Q.
Source text: as §1, §2

Assay [4] concerns the target T4, FLT3 R834Q (Homo sapiens, UniProt P36888, R834Q).
T4 construct: host or cells: E. coli BL21-derived host (T7 phage) or HEK-293
T4 sequence (P36888 610-943 R834Q limits assumed): T1 sequence (P36888 610-943 D835H limits assumed) with R225Q, H226D
In words: KINOMEscan KdElect competitive binding assay, FLT3 R834Q. The following applies: tosylate salt; read-out: Binding Constant (Kd), FLT3 R834Q.
Source text: as §1, §2

Where a chain is given by its changes, count along the chain named. pKd: −log10 of the molar value.

For orientation: pKd means −log10 of the Kd, conventionally taken in molar units. Consider `COCCOc1ccc2c(c1)ncn2-c1ccc2cccc(N3CCC(N)CC3)c2n1` [CP-673,451], for which the pKd in assay [1] is 9.80; in assay [2] it was 10.00; in assay [3], 9.21; in assay [4], 9.19.
